Key:
[1] = Relative solubility by turbidity in aqueous buffers (pH 1.5, 4.5, 6.8, 7.4); assay type: physicochemical; settings: for turbidity threshold (L, M, H) 1.4: pH 1.5 (SGF); for turbidity threshold (L, M, H) 4.5: pH 4.5 (SIF); for turbidity threshold (L, M, H) 6.8: pH 6.8 (SIF); for turbidity threshold (L, M, H) 7.4: pH 7.4 (HEPES)
Outline: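 Twofold DMSO dilutions of a 25 mM stock were spiked into SGF (0.5M NaCl, pH 1.5), SIF (0.05M NaH2PO4, pH 4.5 and 6.8) or HEPES buffer (10 mM HEPES, 150 mM NaCl, pH 7.4). Absorbance was read at 490, 535 and 650 nm. The endpoint is the concentration crossing O.D. 0.01, averaged across wavelengths.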

[2] = tested on: Osteoclast precursor cells; assay: Osteoclast differentiation assay (acid phosphatase readout); assay type: cell-based
Method: Further, an osteoclast differentiation assay is used to assess the efficacy of Fms inhibitors for treating bone disease such as osteoarthritis. On day 0, Osteoclast Medium BulletKit (Lonza catalog #PT-8001, containing Media, FBS, L-Glutamine, PenStrep, RANKL, and M-CSF) media is thawed and the FBS, L-glutamine and PenStrep from the kit is added to 100 mL of Osteoclast Precursor Basal medium to provide the Osteoclast Precursor Growth Medium (OPGM). This is warmed to 37° C. Osteoclast precursor cells (Lonza catalog #2T-110) frozen in cryovial are warmed to 37° C. and transferred to a 50 mL conical tube. The cryovial is rinsed with OPGM and added dropwise to the conical tube of cells with swirling, then the volume is adjusted to 20-30 mL with addition of OPGM. The cells are centrifuged at 200×g for 15 minutes at room temperature and all but approximately 3 mL of supernatant is removed to a new conical tube. The cells are suspended in the remaining supernatant and the volume is adjusted to 10-15 mL with OPGM added dropwise with swirling. The cells are centrifuged at 200×g for 15 minutes at room temperature and all but approximately 1 mL of supernatant is removed. The cells are resuspended in the remaining supernatant, counted, and the volume adjusted with an appropriate amount of OPGM to provide approximately 1×10^5 cells/mL. A 0.1 mL aliquot of cells is added to each well of a 96-well plate. Compound to be tested is prepared in DMSO for plating at a high concentration of 2.5 mM, with 8 point 1:3 serial dilutions. A 1 μL aliquot of each compound dilution is added to a 96 well v-bottom polypropylene plate and 0.124 mL of OPGM is added to the compound. Then 50 μL at of the compound in OPGM is added to the osteoclast precursor cells in 96-well plate (providing highest test concentration of 5 μM). RANKL (2 μg) from the BulletKit is reconstituted in 1 mL of OPGM, then vortexed and centrifuged briefly. A 792 μL at aliquot of RANKL is added to 6 mL of OPGM and 50 μL at is added to low control wells. Then 76.6 μL M-CSF (10 μg/mL) from the BulletKit is added to the remaining 5.8 mL of OPGM/RANKL solution (4×RANKL/M-CSF/OPGM). A 50 μL at aliquot of this is added to the remaining wells, and the remainder is stored at 4° C. for later use. The plate is incubated at 37° C. for 6 days, then the remaining OPGM/RANKL/M-CSF solution is warmed to 37° C. The remaining approximately 198 μL is combined with 6 mL of OPGM. The media is aspirated from the osteoclast wells and 100 μL of RANKL/OPGM is added to the low controls. The remaining RANKL/OPGM is combined with the approximately 18.5 μL of remaining M-CSF. The remaining 4×RANKL/M-CSF/OPGM from day 0 is diluted to 1× and combined with the freshly prepared solution. A 0.1 mL aliquot of this is added to each osteoclast well and incubated for 37° C. for 1 day. The Acid Phosphatase kit (Cayman Chemical catalog #10008051) is warmed to room temperature. The assay buffer is diluted 5 mL with 45 mL of water. For each plate, two substrate tablets are dissolved in 4.5 mL of the assay buffer, mixing by vortex to break up the tablet. Stop solution is diluted 12 mL with 36 mL of water. In a tissue culture hood, 20 μL of each osteoclast well supernatant is transferred to a 96 well plate. A 30 μL aliquot of the substrate solution is added to each well and incubated at 37° C. for 20 minutes, then added 100 μL stop solution to each well. The absorbance of each well is read at 405 nm on Safire plate reader. The absorbance reading is plotted vs. concentration to provide the IC50 for each compound.

| IC50 [2] | SMILES | turbidity threshold (L, M, H) 1.4 [1] | turbidity threshold (L, M, H) 4.5 [1] | turbidity threshold (L, M, H) 6.8 [1] | turbidity threshold (L, M, H) 7.4 [1] |
| --- | --- | --- | --- | --- | --- |
| < 100 nM | CCc1ccc(Nc2ccc(Cc3c[nH]c4ncnc(OCCOC)c34)c(F)n2)cn1 [Compound P-4016, (6-Ethyl-pyridin-3-yl)-{6-fluoro-5-[4-(2-methoxy-ethoxy)-7H-pyrrolo[2,3-d]pyrimidin-5-ylmethyl]-pyridin-2-yl}-amine] | M (moderate solubility if the threshold concentration is 31.3 μM to 250 μM) | H (high solubility if the threshold concentration is >250 μm) | M (moderate solubility if the threshold concentration is 31.3 μM to 250 μM) | M (moderate solubility if the threshold concentration is 31.3 μM to 250 μM) |
| < 100 nM | COc1ccc(Nc2ccc(Cc3c[nH]c4ncnc(C5CC5)c34)c(F)n2)cn1 [Compound P-4023, [5-(4-cyclopropyl-7H-pyrrolo[2,3-d]pyrimidin-5-ylmethyl)-6-fluoro-pyridin-2-yl]-(6-methoxy-pyridin-3-yl)-amine] | H (high solubility if the threshold concentration is >250 μm) | M (moderate solubility if the threshold concentration is 31.3 μM to 250 μM) | L (low solubility if the threshold concentration is <31.3 μM) | L (low solubility if the threshold concentration is <31.3 μM) |

Source: patent publication US8901118B2, “Compounds and methods for kinase modulation, and indications therefor” (Plexxikon Inc., priority 2010, dated 2014)
